Test results as given in patent US10689343B2, “Inhibitors of tryptophan 2,3-dioxygenase” (NETHERLANDS TRANSLATIONAL RESEARCH CENTER B.V., priority 2016, dated 2020).
Several values for one entry are separate records, joined by “and”; a condition that tells them apart may be missing. Equal entries are not always repeated. Where two headings read alike, the source gives them in different places.

Columns and labels:
Recombinant TDO = target: T1, Recombinant TDO (Homo sapiens, UniProt P48775); assay: Biochemical assay for TDO (NFK GreenScreen); conditions: 50 nM TDO, 200 μM L-tryptophan
T1 construct: Recombinant TDO (Seegers, N., et al.) and all other assay components were diluted in TDO reaction buffer
Description: Biochemical Assay for TDO
The NFK GreenScreen™ assay technology was also used to determine the inhibitory activity of compounds on TDO (Seegers, N., et al., J. Biol. Screen. 19: 1266; 2014). Compounds were serially diluted in DMSO and finally in TDO reaction buffer, consisting of 100 mM NaH2PO4, pH 7.0, supplemented with 0.02% Tween-20 (cat. No. P7949; Sigma Aldrich). Recombinant TDO (Seegers, N., et al.) and all other assay components were diluted in TDO reaction buffer. 10 μl of compound solution and 20 μl of enzyme solution supplemented with 200 μM ascorbic acid were combined in the well of a black 384-well plate (cat. no. 3573; Corning, Corning, N.Y., USA), and incubated for 60 min at room temperature. Subsequently, 10 μl of 0.8 mM of the substrate L-tryptophan was added, i.e., the final concentration of L-tryptophan was 200 μM. The DMSO concentration in the assay was 0.3%. The concentration of TDO was 50 nM. Incubation was continued for 15 min at room temperature. Then, 10 μl of NFK Green™ (NTRC, Oss, The Netherlands) was added, the plate was sealed, and the reaction was developed for 3 hours at 37° C. To determine the production of N-formyl kynurenine (NFK), the seal was removed and fluorescence was read on an EnVision multimode reader (Perkin Elmer, Waltham, Mass., USA). IC50 were calculated using XLfit™ software (ID Business Solutions, Ltd., Surrey, U.K.).

[1] = target: T2, TDO in SW48 colorectal carcinoma cells (Homo sapiens, UniProt P48775); assay: Cell-based assay for TDO in SW48 colorectal carcinoma cells (NFK GreenScreen); conditions: 18 hours with L-tryptophan
T2 construct: Endogenous expression of TDO has been determined in a variety of cancer cell lines; host or cells: SW48 colorectal carcinoma cells
Description: The biological activity of TDO inhibitors can be measured by applying above detection methods to cells that are treated with test compound. Endogenous expression of TDO has been determined in a variety of cancer cell lines (Pilotte et al.; Seegers, et al.), or TDO can be expressed in cells that lack endogenous TDO by transfection of an expression vector containing TDO cDNA. […] A preferred assay is the cell-based NFK GreenScreen™ assay (Seegers et al, supra), which measures the cellular inhibitory activity of compounds on TDO. […] No. V9920). Cell-Based Assay for TDO The NFK GreenScreen™ assay technology was also used to determine the inhibitory activity of compounds on TDO in SW48 colorectal carcinoma cells (Seegers, N., et al., J. Biol. Screen. 19: 1266; 2014). […] Compounds were dissolved in DMSO and diluted in RPMI 1640. Final DMSO concentration in the assay was 0.4% (v/v). Eight thousand cells per well in 40 μl were seeded in a black 384-well tissue plate (cat. No. 781086; […] To determine NFK levels, 12 μl NFK Green™ (NTRC, Oss, The Netherlands) was added to each well, and the plate was sealed and incubated for 4 hours at 37° C. Fluorescence was measured on an EnVision multimode reader (Perkin Elmer, Waltham, Mass., USA).

CYP2D6 = CYP2D6 (Homo sapiens, UniProt P10635); assay: P450-Glo CYP2D6 Luc-IP assay
CYP3A4 = CYP3A4 (Homo sapiens, UniProt P08684); assay: P450-Glo CYP3A4 luciferin isopropylacetal (Luc-IP) assay
Sequence of CYP3A4 (P08684 whole entry): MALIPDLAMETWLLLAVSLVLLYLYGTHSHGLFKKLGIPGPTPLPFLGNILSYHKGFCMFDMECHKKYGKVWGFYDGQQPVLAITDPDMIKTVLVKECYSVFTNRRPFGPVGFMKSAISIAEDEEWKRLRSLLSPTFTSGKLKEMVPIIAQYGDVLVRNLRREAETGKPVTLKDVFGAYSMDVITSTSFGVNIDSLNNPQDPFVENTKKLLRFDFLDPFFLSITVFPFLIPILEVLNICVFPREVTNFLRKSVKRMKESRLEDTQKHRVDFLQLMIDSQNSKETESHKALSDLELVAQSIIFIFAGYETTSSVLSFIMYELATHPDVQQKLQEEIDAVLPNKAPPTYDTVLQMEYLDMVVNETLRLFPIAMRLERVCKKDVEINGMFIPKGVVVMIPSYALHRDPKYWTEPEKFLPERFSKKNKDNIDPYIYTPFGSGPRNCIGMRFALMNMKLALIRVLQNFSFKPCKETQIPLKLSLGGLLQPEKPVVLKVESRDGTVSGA
Description: To determine the inhibitory potency of compounds on CYP3A4 enzyme, the P450-Glo CYP3A4 luciferin isopropylacetal (Luc-IP) assay was used (Promega, Madison, Wis., USA, Cat. No. V9920). The assay makes use of a luminogenic isopropylacetal (IPA) substrate that is a derivative from beetle luciferin, a substrate of luciferase enzymes. The IPA substrate is converted by CYP3A4 to luciferin, which in turn reacts with luciferase to produce an amount of light that is directly proportional to the activity of CYP3A4. Compounds were serially diluted in DMSO and finally in 400 mM K2HPO4, pH 7.4. 5 μl of compound solution and 5 μl of CYP3A4/substrate solution were combined in the well of a white 384-well Optiplate (Perkin Elmer). The DMSO concentration in the assay was 0.1%. After incubation for 10 minutes at room temperature in the dark, 10 μl of NADPH regeneration system was added and incubation was continued for 10 min. Then, 20 μl of Luciferin Detection Reagent was added to stop the reaction, and incubation was continued for another 20 min. Luminescence was measured on an Envision multimode reader and IC50 values were calculated using XLfit™. […] Instead of in a 96-well plate, the assay was performed in 384-well white Perkin Elmer Optiplate (cat. no. 6007290).

Sequence of CYP2D6 (P10635 whole entry): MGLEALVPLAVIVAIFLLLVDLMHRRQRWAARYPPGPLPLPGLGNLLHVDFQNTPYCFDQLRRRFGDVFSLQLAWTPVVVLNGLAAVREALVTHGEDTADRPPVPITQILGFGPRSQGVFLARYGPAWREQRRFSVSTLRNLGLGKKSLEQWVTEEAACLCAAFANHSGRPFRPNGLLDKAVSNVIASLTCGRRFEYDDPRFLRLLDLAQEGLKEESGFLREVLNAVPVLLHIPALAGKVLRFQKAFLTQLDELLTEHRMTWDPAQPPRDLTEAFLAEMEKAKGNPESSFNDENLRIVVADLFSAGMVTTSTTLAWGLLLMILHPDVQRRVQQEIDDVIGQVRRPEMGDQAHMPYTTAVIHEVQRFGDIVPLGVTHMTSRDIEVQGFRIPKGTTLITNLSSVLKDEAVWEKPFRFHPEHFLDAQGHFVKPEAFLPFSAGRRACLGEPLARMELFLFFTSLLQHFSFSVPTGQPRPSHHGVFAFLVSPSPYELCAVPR
T1 sequence (P48775 whole entry): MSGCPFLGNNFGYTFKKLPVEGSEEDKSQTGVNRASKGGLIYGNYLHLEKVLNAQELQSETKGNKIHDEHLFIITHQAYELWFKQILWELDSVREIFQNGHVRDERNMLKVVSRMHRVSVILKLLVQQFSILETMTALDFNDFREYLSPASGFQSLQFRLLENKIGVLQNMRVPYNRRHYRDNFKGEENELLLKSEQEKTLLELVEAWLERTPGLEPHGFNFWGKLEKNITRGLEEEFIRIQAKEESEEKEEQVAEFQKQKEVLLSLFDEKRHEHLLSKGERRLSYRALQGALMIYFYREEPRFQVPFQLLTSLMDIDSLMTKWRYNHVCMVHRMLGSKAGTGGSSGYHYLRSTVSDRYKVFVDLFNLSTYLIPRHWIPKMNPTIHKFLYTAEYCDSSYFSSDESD
T2 sequence (P48775 whole entry): as above

Row | Compound | IC50 (Recombinant TDO) [nM] | IC50 ([1]; read-out: IC50 on TDO in cells) | IC50 (CYP2D6) [nM] | IC50 (CYP3A4) [nM] | IC50 ([1]; IC50 on TDO in cells)
1 | CC(CN(C)C)NC(=O)c1ccc(-c2c[nH]c3cc(F)ccc23)cc1 (stereo not shown) [Example 1, N-[2-(dimethylamino)-1-methyl-ethyl]-4-(6-fluoro-1H-indol-3-yl)benzamide] | < 1000 | ≤ 200 nM | > 10000 | > 10000 | –
2 | CC(C)NC(=O)c1ccc(-c2c[nH]c3cc(F)ccc23)cc1 [Example 2, 4-(6-Fluoro-1H-indol-3-yl)-N-isopropyl-benzamide] | < 1000 | ≤ 200 nM | > 10000 | > 10000 | –
3 | CC(C)[C@@H](CO)NC(=O)c1ccc(-c2c[nH]c3cc(F)ccc23)cc1 [Example 3, 4-(6-Fluoro-1H-indol-3-yl)-N-[(1S)-1-(hydroxymethyl)-2-methyl-propyl]benzamide] | < 1000 | ≤ 500 nM and 200 to 500 nM | > 10000 | > 10000 | –
4 | CC(=O)Nc1ccc(-c2c[nH]c3cc(F)ccc23)cc1 [Example 4, N-[4-(6-Fluoro-1H-indol-3-yl)phenyl]acetamide] | < 1000 | ≤ 500 nM and 200 to 500 nM | > 10000 | > 10000 | –
5 | O=C(NCCO)c1ccc(-c2c[nH]c3cc(F)ccc23)cc1 [Example 10, 4-(6-Fluoro-1H-indol-3-yl)-N-(2-hydroxyethyl)benzamide] | < 1000 | ≤ 500 nM and 200 to 500 nM | 5000 to 10000 | > 10000 | –
6 | N#CC1(NC(=O)c2ccc(-c3c[nH]c4cc(F)ccc34)cc2)CC1 [Example 12, N-(1-cyanocyclopropyl)-4-(6-fluoro-1H-indol-3-yl)benzamide] | < 1000 | ≤ 500 nM and 200 to 500 nM | > 10000 | > 10000 | –
7 | CC(C)(O)CNC(=O)c1ccc(-c2c[nH]c3cc(F)ccc23)cc1 [Example 13, 4-(6-Fluoro-1H-indol-3-yl)-N-(2-hydroxy-2-methyl-propyl)benzamide] | < 1000 | ≤ 500 nM and 200 to 500 nM | > 10000 | > 10000 | –
8 | C[C@H](CO)NC(=O)c1ccc(-c2c[nH]c3cc(F)ccc23)cc1 [Example 14, 4-(6-fluoro-1H-indol-3-yl)-N-[(1R)-2-hydroxy-1-methyl-ethyl]benzamide] | < 1000 | – | 5000 to 10000 | > 10000 | ≤ 500 nM and 200 to 500 nM
9 | C[C@@H](CO)NC(=O)c1ccc(-c2c[nH]c3cc(F)ccc23)cc1 [Example 15, 4-(6-fluoro-1H-indol-3-yl)-N-[(1S)-2-hydroxy-1-methyl-ethyl]benzamide] | < 1000 | – | > 10000 | > 10000 | ≤ 200 nM
10 | O=C(N[C@@H](CO)c1ccccc1)c1ccc(-c2c[nH]c3cc(F)ccc23)cc1 [Example 16, 4-(6-fluoro-1H-indol-3-yl)-N-[(1R)-2-hydroxy-1-phenyl-ethyl]benzamide] | 1000 to 5000 | ≤ 500 nM and 200 to 500 nM | 5000 to 10000 | 5000 to 10000 | –
11 | COC[C@@H](C)NC(=O)c1ccc(-c2c[nH]c3cc(F)ccc23)cc1 [Example 17, 4-(6-Fluoro-1H-indol-3-yl)-N-[(1R)-2-methoxy-1-methyl-ethyl]benzamide] | < 1000 | ≤ 500 nM and 200 to 500 nM | > 10000 | > 10000 | –
12 | O=C(N[C@H]1CCCNC1)c1ccc(-c2c[nH]c3cc(F)ccc23)cc1 [Example 19, 4-(6-Fluoro-1H-indol-3-yl)-N-[(3S)-3-piperidyl]benzamide] | < 1000 | ≤ 200 nM | > 10000 | > 10000 | –
13 | O=C(N[C@@H]1CN2CCC1CC2)c1ccc(-c2c[nH]c3cc(F)ccc23)cc1 [Example 20, 4-(6-Fluoro-1H-indol-3-yl)-N-[(3S)-quinuclidin-3-yl]benzamide] | < 1000 | ≤ 200 nM | > 10000 | > 10000 | –
14 | CC(O)C(C)NC(=O)c1ccc(-c2c[nH]c3cc(F)ccc23)cc1 (stereo not shown) [Example 21, 4-(6-Fluoro-1H-indol-3-yl)-N-(2-hydroxy-1-methyl-propyl)benzamide] | < 1000 | ≤ 200 nM | > 10000 | > 10000 | –
15 | CCN(CC)CC(C)NC(=O)c1ccc(-c2c[nH]c3cc(F)ccc23)cc1 (stereo not shown) [Example 23, N-[2-(diethylamino)-1-methyl-ethyl]-4-(6-fluoro-1H-indol-3-yl)benzamide] | < 1000 | ≤ 200 nM | > 10000 | 5000 to 10000 | –
16 | CN1CCC(NC(=O)c2ccc(-c3c[nH]c4cc(F)ccc34)cc2)CC1 [Example 24, 4-(6-Fluoro-1H-indol-3-yl)-N-(1-methyl-4-piperidyl)benzamide] | < 1000 | ≤ 200 nM | > 10000 | > 10000 | –
17 | CN1CCCC(NC(=O)c2ccc(-c3c[nH]c4cc(F)ccc34)cc2)C1 (stereo not shown) [Example 25, 4-(6-Fluoro-1H-indol-3-yl)-N-(1-methyl-3-piperidyl)benzamide] | < 1000 | ≤ 200 nM | > 10000 | > 10000 | –
18 | O=C(NC1COC1)c1ccc(-c2c[nH]c3cc(F)ccc23)cc1 [Example 26, 4-(6-Fluoro-1H-indol-3-yl)-N-(oxetan-3-yl)benzamide] | < 1000 | ≤ 500 nM and 200 to 500 nM | > 10000 | > 10000 | –
19 | COCC(=O)Nc1ccc(-c2c[nH]c3cc(F)ccc23)cc1 [Example 27, N-[4-(6-fluoro-1H-indol-3-yl)phenyl]-2-methoxy-acetamide] | < 1000 | ≤ 500 nM and 200 to 500 nM | > 10000 | > 10000 | –
20 | CSCC(=O)Nc1ccc(-c2c[nH]c3cc(F)ccc23)cc1 [Example 31, N-[4-(6-fluoro-1H-indol-3-yl)phenyl]-2-methylsulfanyl-acetamide] | < 1000 | ≤ 500 nM and 200 to 500 nM | > 10000 | > 10000 | –
21 | O=C(N[C@@H]1CCCNC1)c1ccc(-c2c[nH]c3cc(F)ccc23)cc1 [Example 36, 4-(6-Fluoro-1H-indol-3-yl)-N-[(3R)-3-piperidyl]benzamide] | < 1000 | ≤ 500 nM and 200 to 500 nM | > 10000 | > 10000 | –
22 | O=C(NC[C@@H]1CCCNC1)c1ccc(-c2c[nH]c3cc(F)ccc23)cc1 [Example 42, 4-(6-Fluoro-1H-indol-3-yl)-N-[[(3R)-3-piperidyl]methyl]benzamide] | < 1000 | ≤ 500 nM and 200 to 500 nM | > 10000 | 5000 to 10000 | –
23 | Cn1cc(CCC(=O)Nc2ccc(-c3c[nH]c4cc(F)ccc34)cc2)cn1 [Example 107, N-[4-(6-fluoro-1H-indol-3-yl)phenyl]-3-(1-methylpyrazol-4-yl)propanamide] | – | ≤ 500 nM and 200 to 500 nM | > 10000 | > 10000 | –
24 | CS(=O)(=O)N1CCCC(NC(=O)c2ccc(-c3c[nH]c4cc(F)ccc34)cc2)C1 (stereo not shown) [Example 120, 4-(6-Fluoro-1H-indol-3-yl)-N-(1-methylsulfonyl-3-piperidyl)benzamide] | – | ≤ 500 nM and 200 to 500 nM | > 10000 | > 10000 | –
25 | Cc1cc(C(=O)N[C@H](C)CO)ccc1-c1c[nH]c2cc(F)ccc12 [Example 128, 4-(6-Fluoro-1H-indol-3-yl)-N-[(1R)-2-hydroxy-1-methyl-ethyl]-3-methyl-benzamide] | 1000 to 5000 | – | 5000 to 10000 | 5000 to 10000 | –
26 | Cc1cc(C(=O)N[C@H]2CCCNC2)ccc1-c1c[nH]c2cc(F)ccc12 [Example 130, 4-(6-Fluoro-1H-indol-3-yl)-3-methyl-N-[(3S)-3-piperidyl]benzamide] | < 1000 | – | > 10000 | 5000 to 10000 | –
27 | COC(=O)CNC(=O)c1ccc(-c2c[nH]c3cc(F)ccc23)cc1 [Example 138, Methyl 2-[[4-(6-fluoro-1H-indol-3-yl)benzoyl]amino]acetate] | < 1000 | – | > 10000 | > 10000 | –
